{
  "source": "patent US20260306968A1",
  "about": "“METHOD FOR THE SEPARATION OF PHOSPHORUS STEREOISOMERS OF REMDESIVIR USING LIQUID-LIQUID CHROMATOGRAPHY” (ROTACHROM TECHNOLÓGIAI ZRT., priority 2023, published 2026)",
  "key": {"[1]": {"details": "Várnai et al., J. Pharm. Biomed. Anal., 2021; cited from earlier work"}, "[2]": {"test": "Dissolving ability of the preferred solvent systems for the remdesivir mixture", "assay_type": "physicochemical", "experimental": "The preferred solvent systems are characterized by a short settling time (less than 30 sec), a good dissolving ability (more than 20 mg racemic mixture of remdesivir can be dissolved in 1 mL of the solvent system), while from the toxicological aspect, their components can be categorized into class 3 and/or class 4 solvents classes."}},
  "data": [
    {"smiles": "CCC(CC)COC(=O)[C@H](C)N[P@](=O)(OC[C@H]1O[C@@](C#N)(c2ccc3c(N)ncnn23)[C@H](O)[C@@H]1O)Oc1ccccc1", "note": "[remdesivir]", "values": [
      {"measurement": "ionization constant (basic pka)", "setting": "[1]", "value": 3.56}
    ]},
    {"smiles": "CCC(CC)COC(=O)[C@H](C)NP(=O)(OC[C@H]1O[C@@](C#N)(c2ccc3c(N)ncnn23)[C@H](O)[C@@H]1O)Oc1ccccc1", "note": "(mixture of isomers) [racemic mixture of remdesivir]", "values": [
      {"measurement": "amount that can be dissolved in 1 mL of the solvent system", "setting": "[2]", "value": "more than 20 mg"}
    ]}
  ]
}
